Assay results taken from patent US11590071B2, “Injectable drug delivery implant composition and method of use thereof” (King Abdulaziz University, priority 2021, dated 2023).
Structures can show the parent of a compound that is named as a salt.

How the values were obtained:
[1] = In vivo drug release study (plasma DMF by HPLC after SC injection); set-up: species or system Albino Wistar rats; conditions: rats, S.C.
Protocol: In vivo drug release study was also performed. Albino Wistar rats (275-300 g) were used in the study. Sterile polypropylene cages with paddy husk were used for the housing of experimental animals. Standard food pellets were given to the animals with water ad libitum. Uses of experimental animal were approved by the IAEC (JSSCP, S. S. Nagar, Mysore, India Code No: 132/2013) and for all the purpose of animal welfare the CPCSEA guidelines were followed.
The experimental animals were separated into groups of three and each group consisted of three animals. […] For injecting 0.5 mL of injectable gel, a syringe of 1 mL with the needle of 26-gauge was used.
For the In-vivo detection of Dimethyl Fumarate, an aliquot of blood was drawn from retro orbital sinus of each rat at specified blood collection times. 1.5 mL aliquot of blood from retro orbital sinus was collected in an EDTA coated Eppendorf tube. The tubes were centrifuged at 4° C. and 8000 rpm for 10 min to collect plasma. Plasma was separated into a separate eppendorf tube. Until the screening or assay of plasma samples by using HPLC, the sample was stored at −20° C.
All animals remained in good health throughout the acclimatization and study periods. The cumulative (±SD) plasma concentrations of DMF at the times of sample collection after SC are plotted in FIG. 8. Drug concentration was determined by using HPLC method. […]

[2] = tested on: rat subcutaneous tissue; test: Tissue biocompatibility study of DMF ISFI system (physical inspection for inflammation); type: in vivo, rats; conditions: SC injection; visual observation
Protocol: Tissue biocompatibility study of DMF ISFI system was performed. Mice were separated into three groups i.e., positive control group, test group, negative control group and each group consist of three animals to assess the DMF and ISFI biocompatibility. All of the three groups received different drugs like first group received phosphate buffer of pH 7.4 dispersed DMF, test group was given both drug DMF with the ISFI and the last group were given only ISFI. For all physical signs of inflammation, all the animals were visually observed. Produces responses in experimental animals were graded as 0 for normal, + for mild symptoms, ++ for moderate and +++ used for the severe symptoms. After injecting the drugs in animals, one mouse per group was sacrificed at the interval of 3rd day, 7th day and 14th days. The adjacent tissues were excised and fixed in 10% formalin tamped with phosphate buffer. The tissue was under the observation of optical microscope after the hematoxylin and eosin staining process for the changes in acute inflammatory responses, fibrosis and foreign body reaction. (Anderson and Langone, 1999 and Park and Park, 1999).

plasma concentration (final level) ([1]; pure drug 1 mg/0.2 mL, group III): non-detectable quantities
time after which plasma concentration falls ([1]; pure drug 2 mg/0.2 mL, Group I): 150 h
inflammatory reaction at physical inspection [2]: highest inflammation
Structure (SMILES): COC(=O)/C=C/C(=O)OC [DMF, Dimethyl fumarate]
